Our source for the teratomas in vivo values is patent US20240417687A1, “THYMIC CELLS AND METHODS OF MAKING” (Thymmune Therapeutics, Inc., priority 2021, published 2024).

The data set has as its system residual undifferentiated pluripotent cells. Description: Teratoma formation after transplantation of TEP populations treated with YM155. Type of data set: in vivo. Particulars: TEP population treated prior to transplantation versus not treated. How it is done: An important safety issues to address in iPSC-derived cell therapy products was the possible presence of residual undifferentiated pluripotent cells in the end. Such iPSCs in the product can give rise to teratomas. […] YM155, a Survivin inhibitor and PluriSIn-1, a stearoyl-CoA desaturase inhibitor was tested.

For the molecule `COCCn1c2c([n+](Cc3cnccn3)c1C)C(=O)c1ccccc1C2=O` [YM155], the teratomas in vivo entry is “smaller teratomas”.
